Assay: Antiproliferative activity against mouse ASZ cells assessed as reduction in cell viability after 72 hrs by MTS/PMS assay
Type: functional

Compound	GI50 [µM]
CN(C)c1cccc(-c2ccc(C3C/C=C/CCC(=O)OCCCOC3=O)cc2)c1 (stereo not drawn)	≥ 75
O=C1CC/C=C/CC(c2ccc(-c3cccc(O)c3)cc2)C(=O)OCCCO1 (stereo not drawn)	12.1
O=C1CC/C=C/CC(c2ccc(-c3ccncc3)cc2)C(=O)OCCCO1 (stereo not drawn)	≥ 75
O=C1CC/C=C/CC(c2ccc(-c3cnn(Cc4ccccc4)c3)cc2)C(=O)OCCCO1 (stereo not drawn)	≥ 100
O=C1CC/C=C/CC(c2ccc(-c3ccccc3)cc2)C(=O)OCCCO1 (stereo not drawn)	≥ 100
COc1cc(-c2ccc(C3C/C=C/CCC(=O)OCCCOC3=O)cc2)c(OC)nn1 (stereo not drawn)	19.7
O=C1CC/C=C/CC(c2ccc(-c3cccnc3)cc2)C(=O)OCCCO1 (stereo not drawn)	40.9
Cc1noc(C)c1-c1ccc(C2C/C=C/CCC(=O)OCCCOC2=O)cc1 (stereo not drawn)	≥ 75

From ChEMBL document CHEMBL4665873, “Exploring the physicochemical and antiproliferative properties of biaryl-linked [13]-macrodilactones” (2020)
